Tests used:
Assay type in all cases: physicochemical
[1] = Stable lubricating film for solid-Liquid A-Liquid B combinations, theory versus experiment; parameters: key: “Y” indicates that Liquid B forms a stable lubricating film, and is not displaced by Object A; “N” indicates that Liquid B is displaced by Object A; settings: label = Liquid A
Source text: When the relationship holds, the lubricating liquid will stay in intimate contact with the porous solid without being displaced by Liquid A. Note that the equilibrium contact angles were estimated from the average values of the advancing and receding contact angles of Liquid A and the lubricating liquid on the flat solid surface. Satisfying the relationship can help promote the operation stability of the slippery surface where the liquid layer is substantially completely covered by the test liquid (i.e., two-phase environments that involve a single fluid interface between the test liquid and the liquid layer) and where the liquid layer contacts a droplet of the test fluid as well as air (i.e., three-phase environments that involve three fluid interfaces of (i) test liquid-liquid layer, (ii) test liquid-air, and (iii) liquid layer-air). […] Notice that γA and γB are equivalent to γAX and γBX defined in the text, and medium X is air specifically in this context. Variable γAB represents the interfacial tension for Object A-Liquid B interface. […] M., Ind. Eng. Chem. 56, 40-42, 1964; Israelachvili, J. N. Intermolecular and Surface Forces, Academic Press, 2011). The dispersion force contribution of water surface tension […]., Ind. Eng. Chem. 56, 40-42, 1964). S. Epoxy represents silanized epoxy resin substrate.

[2] = Surface tension of polar and non-polar liquids
Source text: Fluid-fluid interfacial tension can be measured by many well-established techniques, such as the Wilhelmy plate method, the Du Noüy ring method, and the pendant drop method (e.g., see Drelich et al., in Encyclopedia of Surface and Colloid Science, pp. 3152-3166, Marcel Dekker Inc, 2002, the contents of which is incorporated by reference herein in its entirety). Among all of the techniques, the pendant drop method is among the most popular and versatile technique, which can be easily extended to a two-liquid system. The pendant drop method measures the shape of a fluid-fluid interface and quantifies the shape distortion due to the competition between the fluid-fluid interfacial tension and gravity. In practice, a drop of denser fluid (e.g., Object A) is suspended by a syringe needle in medium X (i.e., air/water/the lubricating fluid). Owing to the influence of gravity, the denser liquid droplet will be deformed as the liquid volume increases. The shape profile of the liquid droplet is captured by an optical system and subsequently analyzed by a computer software when the liquid volume is increased to the maximum possible size (i.e., before the liquid drop is detached from the syringe needle). The interfacial tension of the fluid-fluid interface, γ, can then be deduced from the formula, γ=ΔρgD^2/H, where Δρ is the density difference between the two immiscible fluids, g is gravity, D is equatorial diameter of the liquid droplet, and H is drop shape dependent parameters which is a function of the shape profile of the droplet.

[3] = Contact angles of various liquids on flat solids; parameters: unit not given here
Description: The behavior of liquids on surfaces is described by an equilibrium contact angle. An equilibrium contact angle, θ, is the angle at which a liquid/vapor interface meets a solid surface, which is determined by the interactions across the three interfaces, e.g., solid/liquid/vapor. […] The upper limit is known as the apparent advancing contact angle (θA), whereas the lower limit is referred as the apparent receding contact angle (θR). The difference between these values is known as contact angle hysteresis (i.e., Δθ=θA−θR, where θA≥θ≥θR), which characterizes the liquid repellency of a surface. Conventionally, equilibrium contact angle can be roughly estimated by the average of the advancing and receding angles (i.e., θ=(θA+θR)/2), or by a static contact angle, θstatic (i.e., θ=θstatic).
In practice, contact angle measurement can be performed by a number of different well-established techniques, such as the sessile drop method and the Wilhelmy method. In particular, the sessile drop method is among the most popular technique for contact angle measurement. In this technique, a liquid droplet is deposited on a targeted solid surface, where the liquid profile is captured by an optical system of a goniometer and geometrically fitted to obtain the contact angle. The contact angle measured from a static liquid droplet deposited on the surface is known as the static contact angle, θstatic. Using the same system, advancing contact angle, θA, can be measured while the volume of the drop is increasing until the wetting line starts to advance. Receding contact angle, θR, can be measured by decreasing the volume of the drop and determining the contact angle just before the wetting line recedes. Alternatively, the advancing and the receding angles of the liquid drop can also be determined by gradually tilting the solid surface until the liquid drop starts to move.

[4] = Solid Epoxy, Liquid B FC-70, R 1
[5] = Solid Epoxy, Liquid B FC-70, R 2
[6] = Solid S. Epoxy (silanized epoxy resin), Liquid B FC-70, R 2
[7] = Solid Silicon, Liquid B H2O, R 1
[8] = flat solid S. (silanized epoxy)

CCCCCCCCCC [Decane]
Stable Film? Exp. [1, 4]: N
Stable Film? Theory [1, 4]: N
Stable Film? Exp. [1, 5]: N
Stable Film? Theory [1, 5]: N
Stable Film? Exp. [1, 6]: Y
Stable Film? Theory [1, 6]: Y
Stable Film? Exp. [1, 7]: N
Stable Film? Theory [1, 7]: N
Surface Tension [2]: 23.6 ± 0.1 mN/m
Measured contact angle θadv ([3]; flat solid Epoxy): 15.0 ± 1.6
Measured contact angle θrec ([3]; flat solid Epoxy): 13.7 ± 0.9
Measured contact angle θstatic ([3]; flat solid Epoxy): 14.2 ± 0.7
Measured contact angle θadv [3, 8]: 66.0 ± 4.1
Measured contact angle θrec [3, 8]: 38.5 ± 0.7
Measured contact angle θstatic [3, 8]: 60.0 ± 2.8
Measured contact angle θadv ([3]; flat solid Silicon): 7.9 ± 1.0
Measured contact angle θrec ([3]; flat solid Silicon): ~0.0
Measured contact angle θstatic ([3]; flat solid Silicon): <5.0

CCCCCCCCCCCC [Dodecane]
Surface Tension [2]: 25.3 ± 0.1 mN/m

OCCO [Ethylene Glycol]
Surface Tension [2]: 48.1 ± 0.3 mN/m

OCC(O)CO [Glycerol]
Surface Tension [2]: 60.3 ± 1.1 mN/m

CCCCCCC [Heptane]
Surface Tension [2]: 19.9 ± 0.3 mN/m

CCCCCCCCCCCCCCCC [Hexadecane]
Stable Film? Exp. [1, 4]: N
Stable Film? Theory [1, 4]: Y/N
Stable Film? Exp. [1, 5]: N
Stable Film? Theory [1, 5]: N
Stable Film? Exp. [1, 6]: Y
Stable Film? Theory [1, 6]: Y
Stable Film? Exp. [1, 7]: N
Stable Film? Theory [1, 7]: N
Surface Tension [2]: 27.2 ± 0.2 mN/m
Measured contact angle θadv ([3]; flat solid Epoxy): 32.8 ± 1.4
Measured contact angle θrec ([3]; flat solid Epoxy): 25.7 ± 0.9
Measured contact angle θstatic ([3]; flat solid Epoxy): 30.6 ± 0.4
Measured contact angle θadv [3, 8]: 76.3 ± 1.4
Measured contact angle θrec [3, 8]: 50.0 ± 3.9
Measured contact angle θstatic [3, 8]: 70.5 ± 2.0
Measured contact angle θadv ([3]; flat solid Silicon): 17.3 ± 1.6
Measured contact angle θrec ([3]; flat solid Silicon): ~0.0
Measured contact angle θstatic ([3]; flat solid Silicon): 5.6 ± 1.1

CCCCCC [Hexane]
Stable Film? Exp. [1, 5]: N
Stable Film? Theory [1, 5]: N
Stable Film? Exp. [1, 6]: Y
Stable Film? Theory [1, 6]: Y
Stable Film? Exp. [1, 7]: N
Stable Film? Theory [1, 7]: Y/N
Surface Tension [2]: 18.6 ± 0.5 mN/m
Measured contact angle θadv ([3]; flat solid Epoxy): ~0.0
Measured contact angle θrec ([3]; flat solid Epoxy): ~0.0
Measured contact angle θstatic ([3]; flat solid Epoxy): ~0.0
Measured contact angle θadv [3, 8]: 52.5 ± 0.3
Measured contact angle θrec [3, 8]: 22.8 ± 1.7
Measured contact angle θstatic [3, 8]: 40.1 ± 4.2
Measured contact angle θadv ([3]; flat solid Silicon): <5.0
Measured contact angle θrec ([3]; flat solid Silicon): ~0.0
Measured contact angle θstatic ([3]; flat solid Silicon): <5.0

CCCCCCCCC [Nonane]
Surface Tension [2]: 22.6 ± 0.2 mN/m

CCCCCCCC [Octane]
Stable Film? Exp. [1, 5]: N
Stable Film? Theory [1, 5]: N
Stable Film? Exp. [1, 6]: Y
Stable Film? Theory [1, 6]: Y
Stable Film? Exp. [1, 7]: N
Stable Film? Theory [1, 7]: N
Surface Tension [2]: 21.4 ± 0.2 mN/m
Measured contact angle θadv ([3]; flat solid Epoxy): 9.7 ± 1.2
Measured contact angle θrec ([3]; flat solid Epoxy): 6.1 ± 0.2
Measured contact angle θstatic ([3]; flat solid Epoxy): 7.9 ± 0.7
Measured contact angle θadv [3, 8]: 57.7 ± 2.5
Measured contact angle θrec [3, 8]: 23.8 ± 4.0
Measured contact angle θstatic [3, 8]: 50.7 ± 3.0
Measured contact angle θadv ([3]; flat solid Silicon): <5.0
Measured contact angle θrec ([3]; flat solid Silicon): ~0.0
Measured contact angle θstatic ([3]; flat solid Silicon): <5.0

CCCCC [Pentane]
Stable Film? Exp. [1, 5]: N
Stable Film? Theory [1, 5]: N
Stable Film? Exp. [1, 6]: Y
Stable Film? Theory [1, 6]: Y
Stable Film? Exp. [1, 7]: N
Stable Film? Theory [1, 7]: Y/N
Surface Tension [2]: 17.2 ± 0.5 mN/m
Measured contact angle θadv ([3]; flat solid Epoxy): ~0.0
Measured contact angle θrec ([3]; flat solid Epoxy): ~0.0
Measured contact angle θstatic ([3]; flat solid Epoxy): ~0.0
Measured contact angle θadv [3, 8]: 36.4 ± 2.5
Measured contact angle θrec [3, 8]: 17.0 ± 1.8
Measured contact angle θstatic [3, 8]: 30.8 ± 3.1
Measured contact angle θadv ([3]; flat solid Silicon): <5.0
Measured contact angle θrec ([3]; flat solid Silicon): ~0.0
Measured contact angle θstatic ([3]; flat solid Silicon): <5.0

CCCCCCCCCCCCC [Tridecane]
Stable Film? Exp. [1, 4]: N
Stable Film? Theory [1, 4]: Y/N
Stable Film? Exp. [1, 5]: N
Stable Film? Theory [1, 5]: N
Stable Film? Exp. [1, 6]: Y
Stable Film? Theory [1, 6]: Y
Surface Tension [2]: 25.9 ± 0.1 mN/m
Measured contact angle θadv ([3]; flat solid Epoxy): 28.3 ± 1.1
Measured contact angle θrec ([3]; flat solid Epoxy): 25.4 ± 0.7
Measured contact angle θstatic ([3]; flat solid Epoxy): 26.9 ± 1.7
Measured contact angle θadv [3, 8]: 72.8 ± 0.2
Measured contact angle θrec [3, 8]: 48.1 ± 3.1
Measured contact angle θstatic [3, 8]: 63.5 ± 2.8

CCCCCCCCCCC [Undecane]
Surface Tension [2]: 24.6 ± 0.2 mN/m

O [Water]
Stable Film? Exp. [1, 4]: N
Stable Film? Theory [1, 4]: Y/N
Stable Film? Exp. [1, 5]: Y
Stable Film? Theory [1, 5]: Y/N
Stable Film? Exp. ([1]; Solid PDMS, Liquid B PDMS, R 1): Y
Stable Film? Theory ([1]; Solid PDMS, Liquid B PDMS, R 1): Y
Stable Film? Exp. ([1]; Solid PP, Liquid B PDMS, R 1): Y
Stable Film? Theory ([1]; Solid PP, Liquid B PDMS, R 1): Y
Stable Film? Exp. ([1]; Solid PP, Liquid B PDMS, R 2): Y
Stable Film? Theory ([1]; Solid PP, Liquid B PDMS, R 2): Y
Stable Film? Exp. ([1]; Solid PTFE, Liquid B PDMS, R 2): Y
Stable Film? Theory ([1]; Solid PTFE, Liquid B PDMS, R 2): Y
Stable Film? Exp. [1, 6]: Y
Stable Film? Theory [1, 6]: Y
Surface Tension [2]: 72.4 ± 0.1 mN/m
Measured contact angle θadv ([3]; flat solid Epoxy): 100.3 ± 3.1
Measured contact angle θrec ([3]; flat solid Epoxy): 67.0 ± 4.5
Measured contact angle θstatic ([3]; flat solid Epoxy): 92.6 ± 1.8
Measured contact angle θadv [3, 8]: 118.9 ± 1.7
Measured contact angle θrec [3, 8]: 90.8 ± 0.9
Measured contact angle θstatic [3, 8]: 113.1 ± 2.8
Measured contact angle θadv ([3]; flat solid Silicon): 14.4 ± 2.7
Measured contact angle θrec ([3]; flat solid Silicon): ~0.0
Measured contact angle θstatic ([3]; flat solid Silicon): 13.1 ± 1.7
